# Active and inactive are the calls of the source. The rule behind the calls is not given here.
# Columns and labels:
# [1] = system: Mycobacterium tuberculosis; experiment: Inhibition of Mycobacterium tuberculosis 20S proteasome open-gate mutant chymotrypsin like activity using Suc-LLVY-AMC as substrate assessed as decrease in enzyme velocity up to 100 uM
# [2] = system: Mycobacterium tuberculosis; experiment: Inhibition of Mycobacterium tuberculosis 20S proteasome open-gate mutant using Suc-LLVY-AMC as substrate at 1 mM preincubated for 30 mins followed by substrate addition measured after 90 mins by fluorescence assay
# [3] = Inhibition of Mycobacterium tuberculosis 20S proteasome open-gate mutant using Suc-LLVY-AMC as substrate preincubated for 30 mins followed by substrate addition measured after 90 mins by fluorescence assay
# [4] = Selectivity for Mycobacterium tuberculosis 20S proteasome open-gate mutant over human 20S proteasome
Structure (SMILES),inhibition [1],inhibition [2],IC50 [3] [nM],Selectivity ratio [4]
CC(C)C[C@@H](NC(=O)[C@H](Cc1ccccc1)NC(=O)c1cnccn1)c1nsc(=O)o1,inactive,inactive,,
CC(C)C[C@H](NC(=O)[C@H](Cc1ccccc1)NC(=O)c1cnccn1)B(O)O [BORTEZOMIB],,,24.9,
CC(C)C[C@H](NC(=O)[C@H](Cc1ccccc1)NC(=O)c1cnccn1)c1nsc(=O)o1,inactive,inactive,,
COc1cccc(-c2nsc(=O)o2)c1,,,,> 1000
